Source: patent publication US11292791B2 (priority 2017, dated 2022)

The compounds below were run against BRD4 (Homo sapiens (Human), UniProt O60885). Conditions: read-out: BRD4 IC50 (μM gmean).
For COC(=O)N1c2ccc3c(nc(C(NC(C)=O)c4ccccc4)n3C3CCC(C(=O)O)CC3)c2CC[C@@H]1C (stereo partly shown) [Example 717], the IC50 was 1 to 1000 µM.
With COC(=O)N1c2ccc3c(nc(CCn4cccn4)n3CC(=O)NCC3CCOCC3)c2CC[C@@H]1C [Example 357] the IC50 was 1 to 1000 µM.
COC(=O)N1c2ccc3c(nc(C4(N5CCCCC5=O)CC4)n3[C@@H]3CCC[C@@H](C(=O)O)C3)c2CC[C@@H]1C [Example 588] gave an IC50 of 1 to 1000 µM.
COC(=O)N1c2ccc3c(nc(Cc4ccc(OC(F)F)cc4)n3[C@@H]3CCC[C@@H](C(=O)O)C3)c2CC[C@@H]1C [Example 533] showed an IC50 of 1 to 1000 µM.
With COC(=O)N1c2ccc3c(nc(CCn4cccn4)n3CC(=O)N(C)[C@H]3CCOC3)c2CC[C@@H]1C [Example 359] the IC50 was 1 to 1000 µM.
COC(=O)N1c2ccc3c(nc(Cc4ccccc4)n3[C@@H]3CCC34CCNCC4)c2CC[C@@H]1C [Example 112, methyl (S)-2-benzyl-7-methyl-3-((R)-7-azaspiro[3.5]nonan-1-yl)-3,7,8,9-tetrahydro-6H-imidazo[4,5-f]quinoline-6-carboxylate] gave an IC50 of 1 to 1000 µM.
COC(=O)N1c2ccc3c(nc(CCn4cccn4)n3CC(=O)NC3COC3)c2CC[C@@H]1C [Example 365] was tested, and the IC50 was 1 to 1000 µM.
COC(=O)N1c2ccc3c(nc(C(C)Cn4ccc(C)n4)n3C3CCCC(C(=O)O)C3)c2CC[C@@H]1C (stereo partly shown) [Example 782] showed an IC50 of 1 to 1000 µM.
COC(=O)N1c2ccc3c(nc(C[C@H](C)c4ccccc4)n3C)c2CC[C@@H]1C [Example 2, methyl (S)-3,7-dimethyl-2-((S)-2-phenylpropyl)-3,7,8,9-tetrahydro-6H-imidazo[4,5-f]quinoline-6-carboxylate] showed an IC50 of 1 to 1000 µM.
In the case of COC(=O)N1c2ccc3c(nc(CC4CCC(OC)CC4)n3C3CCC(C(=O)O)CC3)c2CC[C@@H]1C (stereo partly shown) [Example 729], the IC50 is reported as 1 to 1000 µM.
COC(=O)N1c2ccc3c(nc(C4(Cn5cccn5)CC4)n3[C@H]3CC[C@H](C(=O)O)CC3)c2CC[C@@H]1C [Example 710] was tested, and the IC50 was 1 to 1000 µM.
COC(=O)N1c2ccc3c(nc(CCn4cccn4)n3CCNCc3cnco3)c2CC[C@@H]1C [Example 292] showed an IC50 of 1 to 1000 µM.
COC(=O)N1c2ccc3c(nc(CCn4ccccc4=O)n3CC(=O)N(C)CCO)c2CC[C@@H]1C [Example 379] showed an IC50 of 1 to 1000 µM.
With COC(=O)N1c2ccc3c(nc(Cc4cccc(OC5CC5)n4)n3[C@@H]3CCC[C@@H](C(=O)O)C3)c2CC[C@@H]1C [Example 695] the IC50 was 1 to 1000 µM.
COC(=O)N1c2ccc3c(nc(C(C)Cn4ccc(Cl)n4)n3C3CCCC(C(=O)O)C3)c2CC[C@@H]1C (stereo partly shown) [Example 827] was tested, and the IC50 was 1 to 1000 µM.
COC(=O)N1c2ccc3c(nc(CCn4cccn4)n3CC(=O)NCc3cccnc3)c2CC[C@@H]1C [Example 346] showed an IC50 of 1 to 1000 µM.
COC(=O)N1c2ccc3c(nc(CCn4cccn4)n3CC(=O)N(C)CC(=O)N(C)C)c2CC[C@@H]1C [Example 351] showed an IC50 of 1 to 1000 µM.
Compound COC(=O)N1c2ccc3c(nc(CCn4cccn4)n3CC(=O)N3CC[C@H](C(N)=O)C3)c2CC[C@@H]1C [Example 360] has an IC50 of 1 to 1000 µM.
With COC(=O)N1c2ccc3c(nc(OCCn4cc(Cl)cn4)n3[C@@H]3CCC[C@@H](C(=O)O)C3)c2CC[C@@H]1C [Example 810] the IC50 was 1 to 1000 µM.
Work on COC(=O)N1c2ccc3c(nc(CCn4ccccc4=O)n3CCN3CC[C@H](C(N)=O)C3)c2CC[C@@H]1C [Example 327] yielded an IC50 of 1 to 1000 µM.
COC(=O)N1c2ccc3c(nc(Cc4ccccc4)n3[C@H]3CCCS(=O)(=O)C3)c2CC[C@@H]1C [Example 264, methyl (S)-2-benzyl-3-((S)-1,1-dioxidotetrahydro-2H-thiopyran-3-yl)-7-methyl-3,7,8,9-tetrahydro-6H-imidazo[4,5-f]quinoline-6-carboxylate] gave an IC50 of 1 to 1000 µM.
Compound COC(=O)N1c2ccc3c(nc(C(O)C4CCCCC4)n3C3CCCC(C(=O)O)C3)c2CC[C@@H]1C (stereo partly shown) [Example 625] has an IC50 of 1 to 1000 µM.
For COC(=O)N1c2ccc3c(nc(Cc4cncc(OC(C)C)c4)n3[C@@H]3CCC[C@@H](C(=O)O)C3)c2CC[C@@H]1C [Example 775], the IC50 was 1 to 1000 µM.
Compound COC(=O)N1c2ccc3c(nc(CCn4cccn4)n3CCN3CCC(CO)CC3)c2CC[C@@H]1C [Example 299] has an IC50 of 1 to 1000 µM.
Compound COC(=O)N1c2ccc3c(nc(C(C)Cn4cccn4)n3C3CCS(=O)(=O)C3)c2CC[C@@H]1C (stereo partly shown) [Example 772] has an IC50 of 1 to 1000 µM.
COC(=O)N1c2ccc3c(nc(CCn4ccccc4=O)n3CCN3CCNCC3)c2CC[C@@H]1C [Example 229] showed an IC50 of 1 to 1000 µM.
COC(=O)N1c2ccc3c(nc(CCC4CCCC4)n3C3CCCC(C(=O)O)C3)c2CC[C@@H]1C (stereo partly shown) [Example 514] was tested, and the IC50 was 1 to 1000 µM.
Compound COC(=O)N1c2ccc3c(nc(Cn4cc(Cl)cn4)n3[C@@H]3CCC[C@@H](C(=O)O)C3)c2CC[C@@H]1C [Example 643] has an IC50 of 1 to 1000 µM.
With COC(=O)N1c2ccc3c(nc(CCn4cccn4)n3CC(=O)NCc3ccn(C)n3)c2CC[C@@H]1C [Example 345] the IC50 was 1 to 1000 µM.
For COC(=O)N1c2ccc3c(nc(CCn4ccccc4=O)n3CCNCc3ccncn3)c2CC[C@@H]1C [Example 314], the IC50 was 1 to 1000 µM.
COC(=O)N1c2ccc3c(nc(CCn4cccn4)n3CC(=O)N3CC[C@H](NC(C)=O)C3)c2CC[C@@H]1C [Example 335, methyl (S)-2-(2-(1H-pyrazol-1-yl)ethyl)-3-(2-((S)-3-acetamidopyrrolidin-1-yl)-2-oxoethyl)-7-methyl-3,7,8,9-tetrahydro-6H-imidazo[4,5-f]quinoline-6-carboxylate] showed an IC50 of 1 to 1000 µM.
COC(=O)N1c2ccc3c(nc(Cc4cnc(Cl)cn4)n3[C@@H]3CCC[C@@H](C(=O)O)C3)c2CC[C@@H]1C [Example 669] gave an IC50 of 1 to 1000 µM.
COC(=O)N1c2ccc3c(nc(CCn4ccccc4=O)n3CC(=O)N3CC[C@H](NC(C)=O)C3)c2CC[C@@H]1C [Example 398] gave an IC50 of 1 to 1000 µM.
COC(=O)N1c2ccc3c(nc(CC(C(=O)O)c4ccccc4)n3-c3cccc(OC)c3)c2CC[C@@H]1C (stereo partly shown) [Example 516] gave an IC50 of 1 to 1000 µM.
COC(=O)N1c2ccc3c(nc(CCn4ccccc4=O)n3CC(=O)NCC3(O)CCC3)c2CC[C@@H]1C [Example 390] gave an IC50 of 1 to 1000 µM.
With COC(=O)N1c2ccc3c(nc(C(O)c4cc5ccoc5cn4)n3C3CCCC(C(=O)O)C3)c2CC[C@@H]1C (stereo partly shown) [Example 589] the IC50 was 1 to 1000 µM.
For COC(=O)N1c2ccc3c(nc(N(C)c4ccc(C)cc4)n3[C@@H]3CCC[C@@H](C(=O)O)C3)c2CC[C@@H]1C [Example 591], the IC50 was 1 to 1000 µM.
In the case of COC(=O)N1c2ccc3c(nc(C(O)c4ccccc4)n3C3CCC(C(=O)O)CC3)c2CC[C@@H]1C (stereo partly shown) [Example 708], the IC50 is reported as 1 to 1000 µM.
COC(=O)N1c2ccc3c(nc(CCn4cccn4)n3CC(=O)N(C)C3CCOCC3)c2CC[C@@H]1C [Example 356] was tested, and the IC50 was 1 to 1000 µM.
For COC(=O)N1c2ccc3c(nc(Cc4ccccc4)n3[C@@H]3CCC[C@H](c4nnn[nH]4)C3)c2CC[C@@H]1C [Example 279, methyl (S)-3-((1R,3S)-3-(1H-tetrazol-5-yl)cyclohexyl)-2-benzyl-7-methyl-3,7,8,9-tetrahydro-6H-imidazo[4,5-f]quinoline-6-carboxylate], the IC50 was 1 to 1000 µM.
In the case of COC(=O)N1c2ccc3c(nc(CCn4cccn4)n3CC(=O)NCC#N)c2CC[C@@H]1C [Example 366], the IC50 is reported as 1 to 1000 µM.
Work on COC(=O)N1c2ccc3c(nc(CC[C@H]4CCOC4)n3[C@@H]3CCC[C@@H](C(=O)O)C3)c2CC[C@@H]1C [Example 804] yielded an IC50 of 1 to 1000 µM.
For COC(=O)N1c2ccc3c(nc(C(C)Cn4cc(C)cn4)n3C3CCC(C(=O)O)CC3)c2CC[C@@H]1C (stereo partly shown) [Example 918], the IC50 was 1 to 1000 µM.
With COC(=O)N1c2ccc3c(nc(CC4CCCCC4O)n3C3CCCC(C(=O)O)C3)c2CC[C@@H]1C (stereo partly shown) [Example 614] the IC50 was 1 to 1000 µM.
In the case of COC(=O)N1c2ccc3c(nc(CCn4cccn4)n3CCCS(C)(=O)=O)c2CC[C@@H]1C [Example 270], the IC50 is reported as 1 to 1000 µM.
Work on COC(=O)N1c2ccc3c(nc(CC(C(=O)O)c4ccccc4)n3C3CCCC(OC)C3)c2CC[C@@H]1C (stereo partly shown) [Example 791] yielded an IC50 of 1 to 1000 µM.
Compound COC(=O)N1c2ccc3c(nc(CCn4nccn4)n3[C@H]3CC[C@H](C(=O)O)CC3)c2CC[C@@H]1C [Example 32] has an IC50 of 1 to 1000 µM.
In the case of COC(=O)N1c2ccc3c(nc(CCn4cc(Cl)cn4)n3[C@H]3CC[C@H](C(=O)O)CC3)c2CC[C@@H]1C [Example 41], the IC50 is reported as 1 to 1000 µM.
COC(=O)N1c2ccc3c(nc(Cn4cc(C5CC5)cn4)n3[C@H]3CC[C@H](C(=O)O)CC3)c2CC[C@@H]1C [Example 733] gave an IC50 of 1 to 1000 µM.
COC(=O)N1c2ccc3c(nc(CC(C(=O)O)c4ccccc4)n3-c3ccc(C#N)cc3)c2CC[C@@H]1C (stereo partly shown) [Example 680] gave an IC50 of 1 to 1000 µM.
COC(=O)N1c2ccc3c(nc(C(CO)c4ccccc4)n3C3CCCC(C(=O)O)C3)c2CC[C@@H]1C (stereo partly shown) [Example 505] gave an IC50 of 1 to 1000 µM.
With COC(=O)N1c2ccc3c(nc(CCn4ccccc4=O)n3CC(=O)N(C)CC(=O)N(C)C)c2CC[C@@H]1C [Example 380] the IC50 was 1 to 1000 µM.
COC(=O)N1c2ccc3c(nc(CCn4ccccc4=O)n3CCNCC(=O)N3CCCC3)c2CC[C@@H]1C [Example 324] was tested, and the IC50 was 1 to 1000 µM.
Compound COC(=O)N1c2ccc3c(nc(C(C)Cn4cccn4)n3C3CCS(=O)(=O)CC3)c2CC[C@@H]1C (stereo partly shown) [Example 946] has an IC50 of 1 to 1000 µM.
In the case of COC(=O)N1c2ccc3c(nc(CCn4ccccc4=O)n3CC(=O)N(C)CC(C)(C)O)c2CC[C@@H]1C [Example 389], the IC50 is reported as 1 to 1000 µM.
COC(=O)N1c2ccc3c(nc(CCc4cc(C)no4)n3[C@H]3CC[C@H](C(=O)O)CC3)c2CC[C@@H]1C [Example 37] was tested, and the IC50 was 1 to 1000 µM.
Work on COC(=O)N1c2ccc3c(nc(Cc4ccc(OC)c(F)c4)n3[C@H]3CC[C@H](C(=O)O)CC3)c2CC[C@@H]1C [Example 28] yielded an IC50 of 1 to 1000 µM.
Compound COC(=O)N1c2ccc3c(nc(CC(C(=O)O)c4ccc(C)cc4)n3C3COCC(F)(F)C3)c2CC[C@@H]1C (stereo partly shown) [Example 927] has an IC50 of 1 to 1000 µM.
For COC(=O)N1c2ccc3c(nc(Cc4cc(C(F)(F)F)cnn4)n3[C@@H]3CCC[C@@H](C(=O)O)C3)c2CC[C@@H]1C [Example 687], the IC50 was 1 to 1000 µM.
In the case of COC(=O)N1c2ccc3c(nc(CCn4cccn4)n3CC(=O)NCc3cnco3)c2CC[C@@H]1C [Example 342], the IC50 is reported as 1 to 1000 µM.
Compound COC(=O)N1c2ccc3c(nc([C@@H](C)c4ccccc4)n3[C@H]3CC[C@H](C(=O)O)CC3)c2CC[C@@H]1C [Example 57, trans-4-[(7S)-6-(methoxycarbonyl)-7-methyl-2-[(1S)-1-phenylethyl]-3H,6H,7H,8H,9H-imidazo[4,5-f]quinolin-3-yl]cyclohexane-1-carboxylic Acid] has an IC50 of 1 to 1000 µM.
